From PMC8007111, “Novel Potent Muscarinic Receptor Antagonists: Investigation on the Nature of Lipophilic Substituents in the 5- and/or 6-Positions of the 1,4-Dioxane Nucleus” (Journal of Medicinal Chemistry, 2020)
Read-outs that look alike come from different tables or passages of the source.

Legend:
[1] = target: T1, hM2 mAChR (Homo sapiens, UniProt P08172); details: cited from earlier work
T1 construct: expressed in transfected cells; host or cells: CHO-K1 (membrane preparation)
T1 sequence (P08172 1-466): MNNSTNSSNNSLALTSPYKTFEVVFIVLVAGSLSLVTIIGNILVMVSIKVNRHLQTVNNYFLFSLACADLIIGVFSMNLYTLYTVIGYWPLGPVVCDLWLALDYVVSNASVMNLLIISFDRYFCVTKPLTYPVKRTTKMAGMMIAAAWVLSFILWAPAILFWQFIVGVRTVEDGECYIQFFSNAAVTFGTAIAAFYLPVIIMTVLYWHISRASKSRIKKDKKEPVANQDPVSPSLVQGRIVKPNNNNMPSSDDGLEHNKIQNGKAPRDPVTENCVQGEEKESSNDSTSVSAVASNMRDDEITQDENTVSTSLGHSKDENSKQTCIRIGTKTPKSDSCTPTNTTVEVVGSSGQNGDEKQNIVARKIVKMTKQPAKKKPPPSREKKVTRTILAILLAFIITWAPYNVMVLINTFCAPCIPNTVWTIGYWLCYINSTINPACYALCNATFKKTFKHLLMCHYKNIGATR

[2] = target: T2, hM3 mAChR (Homo sapiens, UniProt P20309); details: cited from earlier work
T2 construct: expressed in transfected cells; host or cells: CHO-K1 (membrane preparation)
T2 sequence (P20309 whole entry): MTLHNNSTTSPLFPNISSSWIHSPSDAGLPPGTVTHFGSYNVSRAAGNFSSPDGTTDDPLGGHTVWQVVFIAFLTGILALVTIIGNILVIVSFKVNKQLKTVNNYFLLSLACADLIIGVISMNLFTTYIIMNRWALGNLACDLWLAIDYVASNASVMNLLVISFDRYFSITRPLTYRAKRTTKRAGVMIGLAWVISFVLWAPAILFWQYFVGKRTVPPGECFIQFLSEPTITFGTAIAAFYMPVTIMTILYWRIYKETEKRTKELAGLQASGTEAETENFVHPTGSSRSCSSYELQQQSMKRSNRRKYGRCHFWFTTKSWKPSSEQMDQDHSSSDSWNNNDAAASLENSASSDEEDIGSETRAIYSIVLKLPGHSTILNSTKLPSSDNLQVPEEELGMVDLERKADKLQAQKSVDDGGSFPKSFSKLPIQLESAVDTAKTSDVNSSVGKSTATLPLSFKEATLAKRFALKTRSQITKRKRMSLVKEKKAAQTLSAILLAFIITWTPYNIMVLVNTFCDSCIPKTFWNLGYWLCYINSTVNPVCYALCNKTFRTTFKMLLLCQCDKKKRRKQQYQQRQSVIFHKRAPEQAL

[3] = target: T3, hM4 mAChR (Homo sapiens, UniProt P08173); details: cited from earlier work
T3 construct: expressed in transfected cells; host or cells: CHO-K1 (membrane preparation)
T3 sequence (P08173 1-479): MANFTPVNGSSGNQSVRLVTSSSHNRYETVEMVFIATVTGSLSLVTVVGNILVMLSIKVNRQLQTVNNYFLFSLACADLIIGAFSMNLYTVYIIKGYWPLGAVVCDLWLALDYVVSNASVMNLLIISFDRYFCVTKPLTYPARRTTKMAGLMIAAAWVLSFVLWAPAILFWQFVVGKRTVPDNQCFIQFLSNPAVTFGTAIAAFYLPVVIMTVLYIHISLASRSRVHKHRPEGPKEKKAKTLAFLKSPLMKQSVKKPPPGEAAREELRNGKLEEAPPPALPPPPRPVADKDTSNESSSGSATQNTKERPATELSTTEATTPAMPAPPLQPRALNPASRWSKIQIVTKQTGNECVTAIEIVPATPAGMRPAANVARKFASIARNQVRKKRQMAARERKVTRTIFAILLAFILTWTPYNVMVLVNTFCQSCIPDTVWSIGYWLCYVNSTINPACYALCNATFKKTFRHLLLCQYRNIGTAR

[4] = target: T4, hM5 mAChR (Homo sapiens, UniProt P08912); details: cited from earlier work
T4 construct: expressed in transfected cells; host or cells: CHO-K1 (membrane preparation)
T4 sequence (P08912 1-532): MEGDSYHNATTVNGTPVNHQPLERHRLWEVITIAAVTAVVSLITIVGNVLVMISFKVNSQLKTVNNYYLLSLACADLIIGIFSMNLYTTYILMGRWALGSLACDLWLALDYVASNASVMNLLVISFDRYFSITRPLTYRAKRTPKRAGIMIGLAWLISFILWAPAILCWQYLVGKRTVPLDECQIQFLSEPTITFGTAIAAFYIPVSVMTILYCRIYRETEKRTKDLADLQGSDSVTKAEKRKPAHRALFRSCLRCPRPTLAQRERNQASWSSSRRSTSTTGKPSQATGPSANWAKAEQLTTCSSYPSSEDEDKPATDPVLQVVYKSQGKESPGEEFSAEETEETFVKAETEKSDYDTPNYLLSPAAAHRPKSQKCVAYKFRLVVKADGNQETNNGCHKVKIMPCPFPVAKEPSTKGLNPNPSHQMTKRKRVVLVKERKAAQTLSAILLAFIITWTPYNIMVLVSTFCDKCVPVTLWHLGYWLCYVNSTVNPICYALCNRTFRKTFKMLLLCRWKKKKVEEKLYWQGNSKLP

[5] = target: T5, hM1 mAChR (Homo sapiens, UniProt P11229); details: cited from earlier work
T5 construct: expressed in transfected cells; host or cells: CHO-K1 (membrane preparation)
T5 sequence (P11229 1-460): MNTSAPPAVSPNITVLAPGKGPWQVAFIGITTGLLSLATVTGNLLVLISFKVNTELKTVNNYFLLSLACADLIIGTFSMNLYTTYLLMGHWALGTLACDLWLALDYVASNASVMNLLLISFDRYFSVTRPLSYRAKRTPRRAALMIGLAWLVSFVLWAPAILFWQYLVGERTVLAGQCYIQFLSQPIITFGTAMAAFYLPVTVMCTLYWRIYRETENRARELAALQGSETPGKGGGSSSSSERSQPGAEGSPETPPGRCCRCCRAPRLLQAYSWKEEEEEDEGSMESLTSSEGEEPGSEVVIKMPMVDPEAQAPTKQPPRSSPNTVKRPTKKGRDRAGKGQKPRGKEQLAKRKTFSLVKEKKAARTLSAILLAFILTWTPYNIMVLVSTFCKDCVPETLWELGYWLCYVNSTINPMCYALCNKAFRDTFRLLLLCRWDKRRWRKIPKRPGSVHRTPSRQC

[6] = system: MSCs from mouse bone marrow; test: Carbachol-induced MSC viability (MTS assay); format: cell-based
Procedure: It is well established that bone marrow MSC behavior is influenced by a variety of signaling systems. In context, cholinergic intramural stimuli and, in particular, muscarinic signals orchestrate MSCs viability and commitment.[11],[12] Considering also the pluripotent MSC nature and their contribution to bone, blood, and systemic homeostasis,[53] viability studies on MSCs were performed to determine the functional profile of 3b, the most interesting compound in this series. […] Successively, the efficacy of 3b in contrasting cell viability induced by the well-known mAChR agonist carbachol was evaluated. […] Further research on the intracellular mechanistic outcomes of 3b on MSCs remains mandatory.
The in vitro studies were performed by using bone marrow MSCs as a model. Male BALB/c mice (Harlan Italy SrL, Milano, Italy) (8 weeks old; body weight ∼24.5 g; n = 4) were kept in a laminar-flow cage in a standardized environmental condition. Food (Harlan, Italy), and water was supplied ad libitum. Mice were sacrificed by CO2 narcosis and cervical dislocation in accordance with the recommendations of the Italian Ethical Committee and under the supervision of authorized investigators. Long bones (femurs and tibiae) were dissected and cleaned from skin, muscle, and connective tissues as much as possible. Bones were placed in a culture dish containing sterile PBS. Then, the bone cavity was flushed in DMEM with a syringe in order to collect the bone marrow cells into a 50 mL sterile tube. […] After 2 weeks of initiating culture, cells were washed with PBS, detached by trypsinization, counted, and plated at the density of 5,000 cells/well in 96 culture plates (Costar Corp., Milano, Italy) in DMEM containing 10% HIFCS, penicillin, and streptomycin.
MSCs were treated with compound 3b (from 10^–4 to 10^–10 M) for 24 h. […] At the end of each procedure, the MSCs viability was measured by MTS assay. […] The quantity of the formazan product was directly proportional to the number of living cells in culture. The colored formazan was measured by reading the absorbance at 490 nm using a […] plate reader.

[7] = target: T3, hM4 mAChR; test: [3H]NMS inhibition radioligand binding, hM4 in CHO-K1 cell membranes
[8] = target: T1, hM2 mAChR; test: [3H]NMS inhibition radioligand binding, hM2 in CHO-K1 cell membranes
[9] = target: T4, hM5 mAChR; test: [3H]NMS inhibition radioligand binding, hM5 in CHO-K1 cell membranes; details: [3H]NMS, CHO-K1 cell membranes, mean ± S.E.M.
[10] = target: T5, hM1 mAChR; test: [3H]NMS inhibition radioligand binding, hM1 in CHO-K1 cell membranes
[11] = target: T2, hM3 mAChR; test: [3H]NMS inhibition radioligand binding, hM3 in CHO-K1 cell membranes
[12] = system: urinary bladder; set-up: method as in PMID 22243489; details: anesthetized rats; compared to oxybutynin; cited from earlier work
[13] = [3H]NMS, CHO-K1 cell membranes, mean ± S.E.M.

Structure (SMILES) | pKi hM4 [7, 13] | pKi hM2 [8, 13] | pKi hM5 [9] | pKi hM1 [10, 13] | pKi hM3 [11, 13] | other results
O=C(O[C@H]1C[C@H]2CC[C@@H](C1)[N+]21CCCC1)C(O)(c1ccccc1)c1ccccc1 [trospium] |  |  |  |  |  | pKi hM2 [1]: 8.94; pKi hM3 [2]: 8.99; pKi hM4 [3]: 8.84; pKi hM5 [4]: 8.22; pKi hM1 [5]: 8.46
C[N+](C)(C)CCOC(N)=O [carbachol] |  |  |  |  |  | effect of agonist on MSC viability ([6]; carbachol 10^–10 M, 24 h): increase of carbachol-induced MSC viability
C[N+](C)(C)C[C@@H]1COC[C@@](c2ccccc2)(C2CCCCC2)O1.[I-] (relative stereo) [3a, 1-((2R*,6S*)-6-Cyclohexyl-6-phenyl-1,4-dioxan-2-yl)-N,N,N-trimethylmethanaminium Iodide] | 7.51 ± 0.08 | 7.36 ± 0.12 | 7.26 ± 0.05 | 8.03 ± 0.09 | 7.84 ± 0.13 | melting point: 270 to 271 °C
C[N+](C)(C)C[C@H]1COCC(c2ccccc2)(c2ccccc2)O1 [(S)-(−)-2] |  |  |  |  |  | reduction of volume-induced contractions of the urinary bladder [12]: more efficaciously reduced the volume-induced contractions of the urinary bladder
C[N+](C)(C)C[C@@H]1CO[C@H](c2ccccc2)CO1.[I-] (relative stereo) [9a, 1-((2R*,5R*)-5-Phenyl-1,4-dioxan-2-yl)-N,N,N-trimethylmethanaminium Iodide] | 5.10 ± 0.07 | 5.06 ± 0.10 | <5 | 5.63 ± 0.07 | 5.14 ± 0.10 | 
C[N+](C)(C)C[C@H]1COC[C@@](c2ccccc2)(C2CCCCC2)O1.[I-] [(2S,6S)-(−)-3b, 1-((2S,6S)-6-Cyclohexyl-6-phenyl-1,4-dioxan-2-yl)-N,N,N-trimethylmethanaminium Iodide] | 9.17 ± 0.19 | 8.22 ± 0.10 | 9.18 ± 0.18 | 9.52 ± 0.19 | 9.05 ± 0.10 | ER (eudismic ratio) hM4 ([7]; eutomer vs distomer): 52; ER (eudismic ratio) hM2 ([8]; eutomer vs distomer): 2; ER (eudismic ratio) hM1 ([10]; eutomer vs distomer): 17; ER (eudismic ratio) hM3 ([11]; eutomer vs distomer): 35
CN1[C@@H]2CC[C@H]1C[C@@H](OC(=O)C(CO)c1ccccc1)C2 (some centres unmarked) [atropine] |  |  |  |  |  | effect on carbachol-induced MSC viability ([6]; pre-incubation 1 h, then carbachol 10^–10 M for 24 h): able to contrast the increase of carbachol-induced MSC viability
C[N+](C)(C)CC1COC(c2ccccc2)(c2ccccc2)CO1 (centres unmarked) [compound 10, 1-(5,5-Diphenyl-1,4-dioxan-2-yl)-N,N,N-trimethylmethanaminium Iodide] |  |  |  |  |  | Ki ([7]; [3H]NMS, CHO-K1 cell membranes, mean ± S.E.M., read-out: pKi hM4 (converted)): 155 nM; Ki ([8]; [3H]NMS, CHO-K1 cell membranes, mean ± S.E.M., read-out: pKi hM2 (converted)): 178 nM; Ki ([9]; read-out: pKi hM5 (converted)): 158 nM; Ki ([10]; [3H]NMS, CHO-K1 cell membranes, mean ± S.E.M., read-out: pKi hM1 (converted)): 36.3 nM; Ki ([11]; [3H]NMS, CHO-K1 cell membranes, mean ± S.E.M., read-out: pKi hM3 (converted)): 135 nM
C[N+](C)(C)C[C@@H]1CO[C@@H](c2ccc(Sc3ccccc3)cc2)CO1.[I-] (relative stereo) [15b, 1-((2R*,5S*)-5-(4-(Phenylthio)phenyl)-1,4-dioxan-2-yl)-N,N,N-trimethylmethanaminium Iodide] | 5.14 ± 0.01 | 5.86 ± 0.04 | 5.40 ± 0.15 | 5.57 ± 0.07 | 5.35 ± 0.06 | 
